Key:
PC12 cells = test: In vitro uptake (binding) assay in PC12 cells; type: cell-based; settings: 30mins incubation, 1 million cells
Protocol: (§1) Both [^18F]FDOPA enantiomers were initially assessed in vitro in all NET cells.
(§2) In vitro binding assays were carried out, in triplicate, in PBS with 0.5% FBS, for 30mins at ambient temperatures using 1 million cells and repeated three times. Blocking studies were carried out using 10meq of the commercial LAT1 inhibitor, 2-Aminobicyclo[2.2.1]heptane-2-carboxylic acid (TOCRIS, MN, USA). Following incubation with each tracer, cells were rinsed three times with cold PBS prior to being counted on an automated gamma counter (1282 Compugamma CS; Pharmacia/LKBNuclear, Inc.) along with external standards. Obtained counts were converted into percentage incubated dose per million cells based on normalization to external standards. Experiments were performed in triplicate and repeated three times.

STC-1 cells = test: In vitro uptake (binding) assay in STC-1 cells; type: cell-based; settings: 30mins incubation, 1 million cells, % incubated dose/million cells
Protocol: as §1, §2

TGP52 cells = test: In vitro uptake (binding) assay in TGP52 cells; type: cell-based; settings: 30mins incubation, 1 million cells, % incubated dose/million cells
Protocol: as §1, §2

PC12 xenografts = test: Ex vivo biodistribution in NSG mice bearing PC12 xenografts; settings: for Biodistribution, Bladder / Biodistribution, Blood / Biodistribution, Bone / Biodistribution, Brain / Biodistribution, Fat / Biodistribution, Heart / Biodistribution, Kidneys / Biodistribution, Liver / Biodistribution, Lungs / Biodistribution, Muscle / Biodistribution, Pancreas / Biodistribution, Small Intestines / Biodistribution, Spleen / Biodistribution, Stomach / Biodistribution, Tumor: PC12 xenograft NSG mice, 1.5MBq i.v.
Protocol: All animal studies were carried out according to regulations set forth and approved by the Johns Hopkins Animal Care and Use Committee. Female, 6- to 8-weeks-old immunodeficient NOD scid gamma (NSG) mice were subcutaneously inoculated with 1 million PC12, STC-1 or COLO-320 cells in […] of Hank’s balanced salt solution in the top flank. Tumors of 4–6 mm in diameter (typically 14-21 days post inoculation) were utilized for in vivo imaging or ex vivo biodistribution studies.
Mice (n=5 per group) were intravenously injected with 1.5MBq (40μCi) of each tracer in 150μL of saline. Ex vivo biodistribution studies were performed at 30min and 120min time points after tracer administration. Blood, liver, spleen, heart, lungs, kidneys, small intestines, stomach, muscle, fat, bone, bladder, brain and tumor tissues were retrieved, weighed, and counted in an automated gamma counter (1282 Compugamma CS). Percentage injected dose per gram (%ID/g) values were calculated based on normalization to external standards, counted in triplicate, and accounted for signal-decay correction.

## N[C@H](Cc1cc(O)c(O)cc1[18F])C(=O)O [D-[^18F]FDOPA, 3,4-dihydroxy-6-[^18F]fluoro-D-phenylalanine]
PC12 cells
  in vitro uptake: 2.97±0.24 % (incubated dose/million cells)
STC-1 cells
  in vitro uptake: 2.41±0.17%
TGP52 cells
  in vitro uptake: 3.18±0.19%
PC12 xenografts; PC12 mice, 120min p.i.
  pancreatic retention, fold lower compared to L-[^18F]FDOPA: ~11 fold
PC12 xenografts; 30min p.i.
  Biodistribution, Bladder: 3.96 %ID/g
  Biodistribution, Blood: 2.52 %ID/g
  Biodistribution, Bone: 2.71 %ID/g
  Biodistribution, Brain: 0.19 %ID/g
  Biodistribution, Fat: 0.28 %ID/g
  Biodistribution, Heart: 1.28 %ID/g
  Biodistribution, Kidneys: 5.30 %ID/g
  Biodistribution, Liver: 3.05 %ID/g
  Biodistribution, Lungs: 3.53 %ID/g
  Biodistribution, Muscle: 0.79 %ID/g
  Biodistribution, Pancreas: 28.22 %ID/g
  Biodistribution, Small Intestines: 3.76 %ID/g
  Biodistribution, Spleen: 3.99 %ID/g
  Biodistribution, Stomach: 2.52 %ID/g
  Biodistribution, Tumor: 2.96 %ID/g
PC12 xenografts; 120min p.i.
  Biodistribution, Bladder: 5.93 %ID/g
  Biodistribution, Blood: 0.48 %ID/g
  Biodistribution, Bone: 4.84 %ID/g
  Biodistribution, Brain: 0.23 %ID/g
  Biodistribution, Fat: 0.34 %ID/g
  Biodistribution, Heart: 0.84 %ID/g
  Biodistribution, Kidneys: 1.23 %ID/g
  Biodistribution, Liver: 0.73 %ID/g
  Biodistribution, Lungs: 2.04 %ID/g
  Biodistribution, Muscle: 1.02 %ID/g
  Biodistribution, Pancreas: 3.42 %ID/g
  Biodistribution, Small Intestines: 1.90 %ID/g
  Biodistribution, Spleen: 1.86 %ID/g
  Biodistribution, Stomach: 1.36 %ID/g
  Biodistribution, Tumor: 1.44 %ID/g
